Measurements from ChEMBL document CHEMBL4145564, “NAD(P)H:Quinone Oxidoreductase 1 (NQO1) as a Therapeutic and Diagnostic Target in Cancer” (J Med Chem, 2018).
Values belong to the compound of their own block, whether it stands above or below them.

Experiments:
[1] = biological target: T1, NAD(P)H dehydrogenase [quinone] 1 (Rattus norvegicus, UniProt P05982); test: Competitive binding affinity to rat liver NQO1 in presence of NADPH
T1 sequence (P05982 whole entry): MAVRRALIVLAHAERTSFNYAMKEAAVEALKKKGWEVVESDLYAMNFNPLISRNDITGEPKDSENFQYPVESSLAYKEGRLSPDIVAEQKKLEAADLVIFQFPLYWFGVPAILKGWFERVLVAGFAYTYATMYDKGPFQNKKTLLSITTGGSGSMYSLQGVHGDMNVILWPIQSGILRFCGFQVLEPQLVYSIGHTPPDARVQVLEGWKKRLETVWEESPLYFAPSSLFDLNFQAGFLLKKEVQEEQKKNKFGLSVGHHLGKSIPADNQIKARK

[2] = Half life in athymic nude mouse blood; format: ADME, organism-based
[3] = biological target: T2, NAD(P)H dehydrogenase [quinone] 1 (Homo sapiens, UniProt P15559); test: Inhibition of recombinant human NQO1 in presence of NADPH measured at 2 sec intervals for 5 mins
[4] = system: Homo sapiens; test: Toxicity in iv dosed human assessed as maximum tolerated dose administered as infusion; format: organism-based; details: in vivo
[5] = biological target: T2, NAD(P)H dehydrogenase [quinone] 1; test: Inhibition of recombinant human NQO1 expressed in Escherichia coli using DCPIP as substrate assessed as rate of reduction of DCPIP in presence of NADH after 5 mins by spectrophotometric analysis
[6] = biological target: T2, NAD(P)H dehydrogenase [quinone] 1; test: Inactivation of recombinant human NQO1 expressed in Escherichia coli using DCPIP as substrate assessed as rate of reduction of DCPIP by spectrophotometric analysis
[7] = biological target: T2, NAD(P)H dehydrogenase [quinone] 1; test: Inactivation of recombinant human NQO1 expressed in Escherichia coli using DCPIP as substrate assessed as partition ratio up to 200 nM by spectrophotometric analysis

Compound: O=c1oc2ccccc2c(O)c1Cc1c(O)c2ccccc2oc1=O [DICUMAROL]
- Ki [1]: 1 to 10 nM

Compound: CC1(C)CCC2=C(O1)c1ccccc1C(=O)C2=O [LAPACHONE]
- half-life [2]: 24 min

Compound: S=C(Cc1ccc2c3c([nH]c2c1)CCCC3)N1CCOCC1
- IC50 [3]: 1470 nM

Compound: CC1=C(N2CC2)C(=O)C(CO)=C(N2CC2)C1=O
- MTD [4]: 1430 ug/m2/day

Now from value to compound:

- Ki [5]: 450 nM
- Kinact [6]: 0.78 min⁻¹
- Ratio [7]: 1.4
Compound: COC1=CC(=O)c2c(c(COc3ccc([N+](=O)[O-])cc3)c(C)n2C)C1=O

- IC50 [3]: 2040 nM
Compound: CN1C(=O)C(O)(CC(=O)c2cc3c4c(cccc4c2)CC3)c2ccccc21 (stereo not drawn)
